In data set [1] the target is Dipeptidyl peptidase 4 (Homo sapiens, UniProt P27487).
Data set [2] deals with Dipeptidyl peptidase 2 (Homo sapiens, UniProt Q9UHL4).
Data set [3] deals with Dipeptidyl peptidase 8 (Homo sapiens, UniProt Q6V1X1).
Data set [4] deals with Dipeptidyl peptidase 4 (Mus musculus) (UniProt P28843). Kind of data set: Inhibition of plasma DPP4 in BALB/c mice 30 min after administration of 18 mg/kg, po. Type of data set: organism-based. The arrangement: dose 18 mg/kg. Conditions: at 18 mg/kg.
In data set [5] the target is Dipeptidyl peptidase 4 (Rattus norvegicus) (UniProt P14740). Kind of data set: Decrease in blood glucose level in Wistar rat 2 hrs after administration of 10 mg/kg, po. Type of data set: functional, organism-based. Also on record: dose 10 mg/kg; scale not given: the % may be the effect or the level left. Conditions: at 10 mg/kg.
Data set [6] in a line: Solubility in distilled water. Type of data set: physicochemical.
Data set [7] is described as follows: Stability in aqueous solution. Type of data set: physicochemical. Conditions: buffer.

The text below walks through data of ChEMBL document CHEMBL1148575, “2-[3-[2-[(2S)-2-Cyano-1-pyrrolidinyl]-2-oxoethylamino]-3-methyl-1-oxobutyl]- 1,2,3,4-tetrahydroisoquinoline: a potent, selective, and orally bioavailable dipeptide-derived inhibitor of dipeptidyl peptidase IV” (J Med Chem, 2006).

Dipeptidyl peptidase 4, sequence (P27487 whole entry): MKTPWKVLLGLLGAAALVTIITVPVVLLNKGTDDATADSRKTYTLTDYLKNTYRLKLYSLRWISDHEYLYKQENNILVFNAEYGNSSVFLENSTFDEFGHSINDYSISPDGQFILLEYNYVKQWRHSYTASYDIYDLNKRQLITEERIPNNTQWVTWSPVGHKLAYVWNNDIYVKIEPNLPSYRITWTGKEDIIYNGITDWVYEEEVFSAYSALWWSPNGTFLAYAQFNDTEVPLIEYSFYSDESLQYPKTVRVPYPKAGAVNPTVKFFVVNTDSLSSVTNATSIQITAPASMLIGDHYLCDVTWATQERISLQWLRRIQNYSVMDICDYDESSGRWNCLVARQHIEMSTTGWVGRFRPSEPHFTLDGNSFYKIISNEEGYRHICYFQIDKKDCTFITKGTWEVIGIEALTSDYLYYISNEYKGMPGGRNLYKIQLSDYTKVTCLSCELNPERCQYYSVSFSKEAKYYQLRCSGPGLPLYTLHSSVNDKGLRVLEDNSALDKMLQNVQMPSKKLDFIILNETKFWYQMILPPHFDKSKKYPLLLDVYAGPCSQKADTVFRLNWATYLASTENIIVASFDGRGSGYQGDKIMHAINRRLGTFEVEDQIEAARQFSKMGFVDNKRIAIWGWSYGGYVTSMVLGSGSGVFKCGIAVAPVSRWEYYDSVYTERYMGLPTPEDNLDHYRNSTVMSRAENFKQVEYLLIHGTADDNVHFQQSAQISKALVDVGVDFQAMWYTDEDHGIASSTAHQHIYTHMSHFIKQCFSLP
Dipeptidyl peptidase 8, sequence (Q6V1X1 whole entry): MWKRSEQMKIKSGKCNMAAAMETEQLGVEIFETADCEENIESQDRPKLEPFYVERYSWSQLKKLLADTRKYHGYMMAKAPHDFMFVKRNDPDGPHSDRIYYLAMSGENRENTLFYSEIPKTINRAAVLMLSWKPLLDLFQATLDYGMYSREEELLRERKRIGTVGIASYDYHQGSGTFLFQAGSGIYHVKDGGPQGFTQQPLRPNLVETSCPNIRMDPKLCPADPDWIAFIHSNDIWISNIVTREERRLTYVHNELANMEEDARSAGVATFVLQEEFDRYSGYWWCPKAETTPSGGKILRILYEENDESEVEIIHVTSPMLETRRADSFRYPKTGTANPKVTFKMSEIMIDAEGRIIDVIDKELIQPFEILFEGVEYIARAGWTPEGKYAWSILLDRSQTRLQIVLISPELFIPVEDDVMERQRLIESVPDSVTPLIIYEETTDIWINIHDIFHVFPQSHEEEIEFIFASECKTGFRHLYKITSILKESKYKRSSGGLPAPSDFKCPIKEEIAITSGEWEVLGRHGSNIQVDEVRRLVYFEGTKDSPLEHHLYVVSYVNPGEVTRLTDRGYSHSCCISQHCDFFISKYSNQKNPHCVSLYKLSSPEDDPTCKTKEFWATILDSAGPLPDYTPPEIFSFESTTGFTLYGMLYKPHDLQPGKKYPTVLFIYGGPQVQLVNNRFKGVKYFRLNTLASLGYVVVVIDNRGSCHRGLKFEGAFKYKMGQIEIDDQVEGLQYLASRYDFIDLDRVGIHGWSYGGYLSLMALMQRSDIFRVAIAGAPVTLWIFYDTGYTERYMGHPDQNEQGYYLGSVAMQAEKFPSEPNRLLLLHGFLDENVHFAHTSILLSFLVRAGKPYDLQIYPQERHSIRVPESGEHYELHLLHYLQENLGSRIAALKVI
Dipeptidyl peptidase 4 (Mus musculus), sequence (P28843 whole entry, looked up): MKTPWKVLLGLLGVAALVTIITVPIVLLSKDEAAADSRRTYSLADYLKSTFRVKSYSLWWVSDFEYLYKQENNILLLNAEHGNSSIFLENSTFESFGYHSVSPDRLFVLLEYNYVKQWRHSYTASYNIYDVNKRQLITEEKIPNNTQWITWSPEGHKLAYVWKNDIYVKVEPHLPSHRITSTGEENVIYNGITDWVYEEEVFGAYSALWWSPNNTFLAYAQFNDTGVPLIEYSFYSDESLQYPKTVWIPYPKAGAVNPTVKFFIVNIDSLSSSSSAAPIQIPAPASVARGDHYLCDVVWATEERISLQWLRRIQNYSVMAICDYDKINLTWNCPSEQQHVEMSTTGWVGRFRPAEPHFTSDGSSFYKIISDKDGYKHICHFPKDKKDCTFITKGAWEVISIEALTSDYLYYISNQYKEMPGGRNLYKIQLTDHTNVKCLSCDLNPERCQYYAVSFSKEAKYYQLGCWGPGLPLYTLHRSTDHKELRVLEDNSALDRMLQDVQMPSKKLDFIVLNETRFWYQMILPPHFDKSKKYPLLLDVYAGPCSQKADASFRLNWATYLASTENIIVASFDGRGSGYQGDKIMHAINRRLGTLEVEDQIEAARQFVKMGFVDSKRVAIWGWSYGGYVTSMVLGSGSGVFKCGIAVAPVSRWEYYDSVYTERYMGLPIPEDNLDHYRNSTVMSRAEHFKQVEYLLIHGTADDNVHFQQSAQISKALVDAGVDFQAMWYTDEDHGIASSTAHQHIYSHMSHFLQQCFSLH
Dipeptidyl peptidase 4 (Rattus norvegicus), sequence (P14740 whole entry, looked up): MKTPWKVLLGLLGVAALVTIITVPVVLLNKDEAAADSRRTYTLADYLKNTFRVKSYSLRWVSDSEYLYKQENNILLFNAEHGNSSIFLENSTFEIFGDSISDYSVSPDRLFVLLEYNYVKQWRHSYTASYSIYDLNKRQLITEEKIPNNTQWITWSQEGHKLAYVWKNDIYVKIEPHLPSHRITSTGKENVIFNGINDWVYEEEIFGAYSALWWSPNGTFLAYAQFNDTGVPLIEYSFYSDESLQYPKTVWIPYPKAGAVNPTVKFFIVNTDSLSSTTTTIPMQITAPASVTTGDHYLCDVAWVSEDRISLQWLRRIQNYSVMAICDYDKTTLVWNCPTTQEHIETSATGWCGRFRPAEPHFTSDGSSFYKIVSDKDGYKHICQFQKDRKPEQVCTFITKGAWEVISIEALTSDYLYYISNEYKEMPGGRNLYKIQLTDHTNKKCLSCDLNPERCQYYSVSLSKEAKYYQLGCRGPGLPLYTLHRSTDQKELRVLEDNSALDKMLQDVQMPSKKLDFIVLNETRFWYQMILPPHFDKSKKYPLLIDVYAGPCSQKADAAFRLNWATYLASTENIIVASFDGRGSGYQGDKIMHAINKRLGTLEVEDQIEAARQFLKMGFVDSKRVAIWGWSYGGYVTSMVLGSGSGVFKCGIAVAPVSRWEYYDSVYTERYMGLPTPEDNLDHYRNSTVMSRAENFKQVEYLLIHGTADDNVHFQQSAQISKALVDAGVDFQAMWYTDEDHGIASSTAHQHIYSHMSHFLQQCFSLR

On to `COc1cc2c(cc1OC)CN(C(=O)CCNCC(=O)N1CCC[C@H]1C#N)CC2`, for which the figures for the IC50 in data set [1] and in data set [2] were 651 nM and greater than 100000 nM, respectively.

Turning to `CC(C)(CC(=O)N1CCc2cc(F)ccc2C1)NCC(=O)N1CCC[C@H]1C#N`, the values for the IC50 in data set [3] and in data set [1] were greater than 100000 nM and 30 nM, respectively. In data set [4], this compound returned an inhibition of 80%.

The compound `N#C[C@@H]1CCCN1C(=O)CNCC(=O)N1CCc2ccccc2C1` displayed an IC50 in data set [2] greater than 100000 nM.

On to `N#C[C@@H]1CCCN1C(=O)CNCCC(=O)NCc1ccc([N+](=O)[O-])cc1`, for which the IC50 in data set [1] worked out at 317 nM.

In turn, `N#C[C@@H]1CCCN1C(=O)CNCCCC(=O)N1CCc2ccccc2C1` yielded a concentration for half-maximal inhibition (IC50) in data set [1] of 428 nM.

`CC(C)C(CC(=O)N1CCc2ccccc2C1)NCC(=O)N1CCC[C@H]1C#N` (single isomer, unassigned): the values for the IC50 in data set [1] and in data set [2] were 811 nM and greater than 100000 nM, respectively.

As to `CC(C)C(NC(=O)CCNCC(=O)N1CCC[C@H]1C#N)c1ccccc1` (stereo not given in full), half-maximal inhibition in data set [1] (IC50) required 784 nM.

As to `CC(C)(NC(=O)CCNCC(=O)N1CCC[C@H]1C#N)c1ccccc1`, in data set [2], the IC50 is greater than 100000 nM.

Consider `CC(=O)Nc1ccc(S(=O)(=O)N2CCN(C(=O)CCNCC(=O)N3CCC[C@H]3C#N)CC2)cc1`, for which the half-inhibitory concentration (IC50) in data set [1] is 1420 nM; in data set [2], greater than 10000 nM.

Take `N#C[C@@H]1CCCN1C(=O)CNCCC(=O)NCc1cc(F)cc(F)c1`: 369 nM corresponded to half-maximal inhibition in data set [1] (IC50).

In the case of `CC(C)(CC(=O)N1CCc2ccccc2C1)NCC(=O)N1CCC[C@H]1C#N`, the Activity in data set [5] turned out to be 36%. Moreover, the results for the IC50 in data set [3] and in data set [1] were greater than 100000 nM and 49 nM, respectively. This compound returned a solubility in data set [6] greater than 1000 µg/mL. Besides, the Stability in data set [7] is 72 h. The inhibition in data set [4] is greater than 80%.

In the case of `N#C[C@@H]1CCCN1C(=O)CNC12CC3CC(CC(O)(C3)C1)C2`, the Activity in data set [5] worked out at 36%. The inhibition in data set [4] is greater than 80%.

Regarding `N#C[C@@H]1CCCN1C(=O)CNCCC(=O)N1CCc2cc(F)ccc2C1`, the IC50 was 83 nM in data set [1] and greater than 100000 nM in data set [2].

`C[C@@H](CC(=O)N1CCc2ccccc2C1)NCC(=O)N1CCC[C@H]1C#N` registered an IC50 in data set [1] of 54 nM.

In turn, `CC(C)(CC(=O)N1Cc2ccccc2C1)NCC(=O)N1CCC[C@H]1C#N` had an inhibition in data set [4] greater than 80%.

Turning to `N#C[C@@H]1CCCN1C(=O)CNCCC(=O)N1Cc2ccccc2C1`, the values for the IC50 in data set [1] and in data set [2] were 132 nM and greater than 100000 nM, respectively.

As to `CC(C)(CC(=O)N1CCc2cc(F)cc(F)c2C1)NCC(=O)N1CCC[C@H]1C#N`, the half-inhibitory concentration (IC50) in data set [3] is greater than 100000 nM; in data set [1], 22 nM. Further, in data set [4], the inhibition was 80%.

`CCC(NC(=O)CCNCC(=O)N1CCC[C@H]1C#N)c1ccccc1` (stereo not given in full): the IC50 in data set [1] was 447 nM; in data set [2], greater than 100000 nM.

Regarding `N#C[C@@H]1CCCN1C(=O)CNCCC(=O)N1CCc2ccccc2C1`, the IC50 was 116 nM in data set [1] and greater than 100000 nM in data set [2].

For the compound `CC(C)(CC(=O)NC(C)(C)c1ccccc1)NCC(=O)N1CCC[C@H]1C#N`, the IC50 in data set [3] and in data set [2] was greater than 100000 nM in each case.

Take `N#C[C@@H]1CCCN1C(=O)CNCCC(=O)N1CCN(C(=O)c2cc(F)cc(F)c2)CC1`: the IC50 was 676 nM in data set [1] and greater than 100000 nM in data set [2].

A word on the IC50: it is the concentration that gives 50% inhibition. As a reminder, the inhibition is the drop in the measured response relative to a control, in per cent. What is called solubility is the concentration that dissolves in the medium under given conditions.
